Assay results: US8394788B2, “Phenylsulfoxyoxazole compound inhibitors of urea transporters” (The Regents of the University of California, priority 2006, dated 2013)
pEC50: −log10 of the molar value.

Columns and labels:
UT-B = target: T1, UT-B (Homo sapiens, UniProt Q13336); assay: RBC lysis assay (human RBCs, acetamide-loaded)
T1 sequence (Q13336 1-389): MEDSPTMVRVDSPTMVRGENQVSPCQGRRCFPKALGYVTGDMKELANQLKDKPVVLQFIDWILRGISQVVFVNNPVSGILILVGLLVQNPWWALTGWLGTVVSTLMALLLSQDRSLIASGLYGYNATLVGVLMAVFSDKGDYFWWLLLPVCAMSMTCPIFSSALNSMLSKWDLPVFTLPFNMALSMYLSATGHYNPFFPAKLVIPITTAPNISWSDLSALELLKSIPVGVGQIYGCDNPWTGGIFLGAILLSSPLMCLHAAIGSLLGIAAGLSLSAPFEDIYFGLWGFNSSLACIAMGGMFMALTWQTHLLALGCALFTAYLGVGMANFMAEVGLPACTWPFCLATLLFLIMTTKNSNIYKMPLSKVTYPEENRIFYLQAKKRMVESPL
Method: An RBC lysis assay was developed in an automated, 96-well format high throughput format and optimized for identification and characterization of small-molecule UT-B inhibitors. Inhibition of UT-B mediated transport of urea by compounds was indicated by increased RBC lysis when urea- or acetamide-loaded RBCs were rapidly diluted into PBS (see FIG. 1).
RBC suspensions were maintained at room temperature for up to 2 hr by periodic pipette mixing. […] After 6 min incubation, 20 μL of the RBC suspension was added rapidly to each well of a 96-well black-walled plate (COSTAR, Corning, N.Y.) containing 180 μL isosmolar buffer (PBS containing 1% DMSO) in each well. Vigorous mixing was achieved by repeated pipetting.
Absorbance values were stable for at least 1 hr.
The percentage of RBC lysis in each test well of a given plate was calculated using control values from the same plate as follows: % lysis=100%(Aneg−Atest)/(Aneg−Apos), where Atest is the absorbance value from a test well. During assay optimization, some test wells were incubated with the non-specific UT-B inhibitor phloretin (0.7 mM, dissolved at 100× in DMSO stock solution) as an additional positive control.
These compounds were tested against human and mouse UT-B using the RBC lysis assay. […] EC50 was calculated by non-linear regression to the equation: % lysis=% lysismin+(% lysismax:[inh]^H)/(EC50^H+[inh]^H), where [inh] is inhibitor concentration and H is the Hill coefficient.

RBC urea transport = details: 23° C.; cited from earlier work

| SMILES | pEC50 (UT-B) | apparent affinity (RBC urea transport) |
| --- | --- | --- |
| NC(=O)CSc1oc(-c2ccc(F)cc2)nc1S(=O)(=O)c1ccc(F)cc1 [ureainh-107, 2-(2-(4-fluorophenyl)-4-(4-fluorophenylsulfonyl)oxazol-5-ylthio)acetamide] | 5.22 | – |
| Cc1ccc(-c2nc(S(=O)(=O)c3ccccc3)c(N3CCCCCC3)o2)cc1 [ureainh-127, 5-(azepan-1-yl)-4-(phenylsulfonyl)-2-p-tolyloxazole] | 5.00 | – |
| COc1ccccc1-c1nc(S(=O)(=O)c2ccccc2)c(N2CCCCCC2)o1 [ureainh-126, 5-(azepan-1-yl)-2-(2-methoxyphenyl)-4-(phenylsulfonyl)oxazole] | 5.00 | – |
| O=C(CSc1oc(-c2ccccc2)nc1S(=O)(=O)c1ccc(Br)cc1)NCc1ccco1 [ureainh-121, 2-(4-(4-bromophenylsulfonyl)-2-phenyloxazol-5-ylthio)-N-(furan-2-ylmethyl)acetamide] | 5.40 | – |
| CSc1[nH]c(-c2ccc(C)cc2)nc1S(=O)(=O)c1ccccc1 [ureainh-130, 5-(methylthio)-4-(phenylsulfonyl)-2-p-tolyl-1H-imidazole] | 5.70 | – |
| O=C(Sc1[nH]c(-c2ccccc2)nc1S(=O)(=O)c1ccccc1)c1ccccc1 [ureainh-132, S-2-phenyl-4-(phenylsulfonyl)-1H-imidazol-5-yl benzothioate] | 5.15 | – |
| O=S(=O)(c1ccccc1)c1nc(-c2ccc(F)cc2)oc1N1CCCCCC1 [ureainh-128, 5-(azepan-1-yl)-2-(4-fluorophenyl)-4-(phenylsulfonyl)oxazole] | 5.00 | – |
| Cc1ccc(S(=O)(=O)c2nc(-c3ccco3)oc2SCC(N)=O)cc1 [ureainh-119, 2-(2-(furan-2-yl)-4-tosyloxazol-5-ylthio)acetamide] | 6.00 | – |
| O=C(CSc1oc(-c2ccccc2)nc1S(=O)(=O)c1ccc(Cl)cc1)NCc1ccco1 [ureainh-122, 2-(4-(4-chlorophenylsulfonyl)-2-phenyloxazol-5-ylthio)-N-(furan-2-ylmethyl)acetamide] | 4.82 | – |
| CNC(N)=O [N-methylurea] | – | approximately 100 mM |
| NC(N)=O [urea] | – | approximately 200 mM |
| O=S(=O)(c1ccccc1)c1nc(-c2ccccc2F)oc1N1CCOCC1 [ureainh-124, 4-(2-(2-fluorophenyl)-4-(phenylsulfonyl)oxazol-5-yl)morpholine] | 5.15 | – |
| Cc1ccc(S(=O)(=O)c2nc(-c3ccccc3)[nH]c2S)cc1 [ureainh-131, 2-phenyl-4-tosyl-1H-imidazole-5-thiol] | 5.22 | – |
| Cc1ccc(S(=O)(=O)c2nc(-c3ccccc3Cl)oc2N2CCOCC2)cc1 [ureainh-125, 4-(2-(2-chlorophenyl)-4-tosyloxazol-5-yl)morpholine] | 4.96 | – |
| NC(=O)CSc1oc(-c2cccs2)nc1S(=O)(=O)c1ccccc1 [ureainh-116, 2-(4-(phenylsulfonyl)-2-(thiophen-2-yl)oxazol-5-ylthio)acetamide] | 6.00 | – |
| CN(C)c1oc(-c2ccccc2Cl)nc1S(=O)(=O)c1ccccc1 [ureainh-123, 2-(2-chlorophenyl)-N,N-dimethyl-4-(phenylsulfonyl)oxazol-5-amine] | 5.30 | – |
| NC(=O)CSc1oc(-c2ccc(F)cc2)nc1S(=O)(=O)c1ccccc1 [ureainh-108, 2-(2-(4-fluorophenyl)-4-(phenylsulfonyl)oxazol-5-ylthio)acetamide] | 4.82 | – |
| CSc1oc(-c2ccco2)nc1S(=O)(=O)c1ccc(Cl)cc1 [ureainh-129, 4-(4-chlorophenylsulfonyl)-2-(furan-2-yl)-5-(methylthio)oxazole] | 4.70 | – |
| Cc1ccc(-c2nc(S(=O)(=O)c3ccccc3)c(SCC(N)=O)o2)cc1 [ureainh-112, 2-(4-(phenylsulfonyl)-2-p-tolyloxazol-5-ylthio)acetamide] | 4.82 | – |

Now from value to compound, other results behind:

| pEC50 (UT-B) | SMILES | apparent affinity (RBC urea transport) |
| --- | --- | --- |
| 6.70 | Cc1ccc(-c2nc(S(=O)(=O)c3ccc(Br)cc3)c(SCC(N)=O)o2)cc1 [ureainh-109, 2-(4-(4-bromophenylsulfonyl)-2-p-tolyloxazol-5-ylthio)acetamide] | – |
| 6.70 | NC(=O)CSc1oc(-c2ccc(F)cc2)nc1S(=O)(=O)c1ccc(Cl)cc1 [ureainh-106, 2-(4-(4-chlorophenylsulfonyl)-2-(4-fluorophenyl)oxazol-5-ylthio)acetamide] | – |
| 6.00 | Cc1ccc(-c2nc(S(=O)(=O)c3ccc(C)cc3)c(SCC(N)=O)o2)cc1 [ureainh-110, 2-(2-p-tolyl-4-tosyloxazol-5-ylthio)acetamide] | – |
| 6.00 | Cc1ccc(-c2nc(S(=O)(=O)c3ccc(Cl)cc3)c(SCC(N)=O)o2)cc1 [ureainh-111, 2-(4-(4-chlorophenylsulfonyl)-2-p-tolyloxazol-5-ylthio)acetamide] | – |
| 6.70 | NC(=O)CSc1oc(-c2ccco2)nc1S(=O)(=O)c1ccc(Br)cc1 [ureainh-118, 2-(4-(4-bromophenylsulfonyl)-2-(furan-2-yl)oxazol-5-ylthio)acetamide] | – |
| 6.00 | O=S(=O)(c1ccc(Cl)cc1)c1nc(-c2ccccc2F)oc1NCc1ccccc1 [ureainh-120, N-benzyl-4-(4-chlorophenylsulfonyl)-2-(2-fluorophenyl)oxazol-5-amine] | – |
| 7.00 | Cc1ccc(S(=O)(=O)c2nc(-c3ccccc3)oc2SCC(N)=O)cc1 [ureainh-103, 2-(2-phenyl-4-tosyloxazol-5-ylthio)acetamide] | – |
| 6.00 | NC(=O)CSc1oc(-c2ccccc2)nc1S(=O)(=O)c1ccccc1 [ureainh-104, 2-(2-phenyl-4-(phenylsulfonyl)oxazol-5-ylthio)acetamide] | – |
| 7.70 | NC(=O)CSc1oc(-c2cccs2)nc1S(=O)(=O)c1ccc(Cl)cc1 [ureainh-113, 2-(4-(4-chlorophenylsulfonyl)-2-(thiophen-2-yl)oxazol-5-ylthio)acetamide] | – |
| 7.00 | NC(=O)CSc1oc(-c2ccco2)nc1S(=O)(=O)c1ccc(Cl)cc1 [ureainh-117, 2-(4-(4-chlorophenylsulfonyl)-2-(furan-2-yl)oxazol-5-ylthio)acetamide] | – |
| 6.30 | Cc1ccc(S(=O)(=O)c2nc(-c3cccs3)oc2SCC(N)=O)cc1 [ureainh-114, 2-(2-(thiophen-2-yl)-4-tosyloxazol-5-ylthio)acetamide] | – |
| 7.00 | Cc1ccc(S(=O)(=O)c2nc(-c3ccc(F)cc3)oc2SCC(N)=O)cc1 [ureainh-105, 2-(2-(4-fluorophenyl)-4-tosyloxazol-5-ylthio)acetamide] | – |
| 7.40 | NC(=O)CSc1oc(-c2ccccc2)nc1S(=O)(=O)c1ccc(Cl)cc1 [ureainh-102, 2-(4-(4-chlorophenylsulfonyl)-2-phenyloxazol-5-ylthio)acetamide] | – |
| 6.22 | NC(=O)CSc1oc(-c2cccs2)nc1S(=O)(=O)c1ccc(F)cc1 [ureainh-115, 2-(4-(4-fluorophenylsulfonyl)-2-(thiophen-2-yl)oxazol-5-ylthio)acetamide] | – |
